Data from US4885239A, “Rapid differentiation of bacteria using polyether antibiotics” (Eastman Kodak Company, priority 1986, dated 1989).

Columns and labels:
E. coli = assay: dye formation from RIND VII in presence of calimycin, E. coli; assay type: cell-based, Escherichia coli (ATCC 25922); parameters: key: 0: no dye formation; +/-: faint dye formation; 1+: light dye formation; 2+: moderate dye formation; 3+: strong dye formation; 4+: very strong dye formation; details: calimycin 10^-3 molar, calcium chloride
Experimental: (§1) gram-negative bacteria Enterobacter cloacae (ATCC 23355), Escherichia coli (ATCC 25922), Proteus vulgaris (ATCC 13315), Klebsiella pneumoniae (ATCC 13883) and Pseudomonas aeruginosa (ATCC 27853), and gram-positive bacteria Staphylococcus aureus (ATCC 25923) and Streptococcus pyogenes (ATCC 19615), and brain heart infusion (BHI) broth from Difco Laboratories (Detroit, Mich.),
(§2) Bacterial suspensions were prepared by growing the cells in BHI to stationary phase overnight at 37° C. P. aeruginosa was grown with agitation. […]
(§3) TERGITOL 7 anionic surfactant was used to differentiate viable bacteria according to the prior art method. […] The amount of dye formed was then determined visually and graded as follows: 0 indicates no dye formation, +/- indicates faint dye formation, 1+ indicates light dye formation, 2+ indicates moderate dye formation, 3+ indicates strong dye formation, and 4+ indicates very strong dye formation.
(§4) Calimycin, a polyether antibiotic, was similarly used with RIND VII in the differentiation of bacteria. Assays were performed as described above, except that 25 μl of 1 molar calcium chloride solution was added to each test solution and the P. aeruginosa response was measured in the presence of 10% yeast extract as the carbon source instead of glucose. […]

P. vulgaris = assay: dye formation from RIND VII in presence of calimycin, P. vulgaris; assay type: cell-based, Proteus vulgaris (ATCC 13315); parameters: key: 0: no dye formation; +/-: faint dye formation; 1+: light dye formation; 2+: moderate dye formation; 3+: strong dye formation; 4+: very strong dye formation; details: calimycin 10^-3 molar, calcium chloride
Experimental: as §1, §2, §3, §4

P. aeruginosa = assay: dye formation from RIND VII in presence of calimycin, P. aeruginosa; assay type: cell-based, Pseudomonas aeruginosa (ATCC 27853); parameters: key: 0: no dye formation; +/-: faint dye formation; 1+: light dye formation; 2+: moderate dye formation; 3+: strong dye formation; 4+: very strong dye formation; details: calimycin 10^-3 molar, calcium chloride, 10% yeast extract instead of glucose
Experimental: as §1, §2, §3, §4

S. aureus (gram +) = assay: change in relative fluorescence with water-compatible RIND XXXV (Example 4), S. aureus; assay type: cell-based, Staphylococcus aureus (ATCC 25923); details: 37° C., without antibiotic 2667
Experimental: as §1
(§5) Bacterial suspensions were prepared by growing the cells in BHI to stationary phase overnight at 37° C. P. aeruginosa was grown with agitation. About 40 ml of overnight cultures were centrifuged, decanted and washed once with 0.05 molar potassium phosphate buffer or 0.05 molar N-2-hydroxyethylpiperazine-N'-2-ethanesulfonic acid (HEPES) buffer, pH 7.8, and resuspended in buffer.
A dispersion containing a RIND compound was prepared by dissolving RIND VII from Table II above in N,N-dimethylformamide (DMF) at 16 mg compound per ml of solvent. An aliquot (250 μl) of the resulting solution was added to 500 μl of TRITON X-100 surfactant. This mixture was then added dropwise with stirring to 25 ml of 0.05 molar HEPES buffer. A solution containing a water-compatible RIND compound XXXV was prepared by dissolving the compound (16 mg/ml) in N,N-dimethylformamide which had been acidified with a 0.1% sulfuric acid solution.
A solution was prepared from the following components: 100 μl RIND XXXV solution (16 mg/ml acidified N,N-dimethylformamide), 200 μl glucose solution (10% in water), 200 μl trimethyl-1,4-benzoquinone ETA solution (1.5 mg/ml methanol) and 10 ml HEPES buffer.
Test solutions were prepared from the following reagents: 50 μl HEPES buffer, 50 μl polyether antibiotic A23187 (free acid, 0.01 molar in methanol), 10 μl calcium chloride solution (1 molar) (serial dilutions of buffer and antibiotic were performed to obtain various antibiotic concentrations), 50 μl of the appropriate cell suspensions (E. coli, about 10^8 cells/ml and S. aureus, about 10^8 cells/ml) and 200 μl of the RIND solution. Control solutions were prepared as described in Examples 2 and 3.
Relative fluorescence was measured using a standard spectrophotometer modified to read at excitation of 540 nm and emission of 620 nm. The change (Δ) in relative fluorescence was determined after 30 minutes at 37° C. for several concentration levels of antibiotic.

E. coli (gram -) = assay: change in optical density with tetrazolium salt MTT (Example 5), E. coli; assay type: cell-based, Escherichia coli (ATCC 25922); details: 540 nm, 37° C., without antibiotic 0.643
Experimental: as §1, §5
The reducible compound solution was prepared with 3-(4,5-dimethyl-2-thiazolyl)-2,5-diphenyl-2H-tetrazolium bromide (MTT) (200 μl of 5 mg/ml methanol), 200 μl glucose solution (10% in water), 200 μl trimethyl-1,4-benzoquinone ETA (1.5 mg/ml methanol) and 12 ml of HEPES buffer (0.05 molar, pH 7.8).
Test solutions were prepared with the following: 50 μl HEPES buffer, 50 μl polyether antibiotic A23187 (free acid, 0.01 molar in methanol), 10 μl calcium chloride (1 molar) (serial dilutions of buffer and antibiotic were performed to obtain various antibiotic concentrations), 50 μl of the appropriate cell suspension, E. coli (about 10^8 cells/ml) or S. aureus (about 10^8 cells/ml), and 200 μl of the MTT solution. Control solutions were prepared as described in previous Examples.
Optical density measurements were obtained at 540 nm using a standard spectrophotometer and the change in optical density (ΔOD) was determined after 30 minutes at 37° C. The resulting data are shown in Table VII below for several concentrations of antibiotic. It is clear from the data that the composition of this example was useful for differentiating bacteria.

SMILES: CNc1ccc2oc(C[C@H]3O[C@@]4(CC[C@H]3C)O[C@H]([C@H](C)C(=O)c3ccc[nH]3)[C@H](C)C[C@H]4C)nc2c1C(=O)O [calimycin, Calimycin]
- dye formation (E. coli; 15 Minutes): 3+
- dye formation (E. coli; 30 Minutes): 4+
- dye formation (P. vulgaris; 15 Minutes): 4+
- dye formation (P. vulgaris; 30 Minutes): 4+
- dye formation (P. aeruginosa; 15 Minutes): 2+
- dye formation (P. aeruginosa; 30 Minutes): 4+
- Δ Relative Fluorescence after 30 Min. (S. aureus (gram +); antibiotic 1 × 10^-4 molar): 409
- Δ Relative Fluorescence after 30 Min. (S. aureus (gram +); antibiotic 2 × 10^-4 molar): 362
- Δ Relative Fluorescence after 30 Min. (S. aureus (gram +); antibiotic 4 × 10^-4 molar): 290
- Δ Relative Fluorescence after 30 Min. (S. aureus (gram +); antibiotic 8 × 10^-4 molar): 345
- Δ OD after 30 Min. (E. coli (gram -); antibiotic 1 × 10^-4 molar): 0.503
- Δ OD after 30 Min. (E. coli (gram -); antibiotic 2 × 10^-4 molar): 0.529
- Δ OD after 30 Min. (E. coli (gram -); antibiotic 4 × 10^-4 molar): 0.512
- Δ OD after 30 Min. (E. coli (gram -); antibiotic 8 × 10^-4 molar): 0.413
